Earlier results on four compounds are cited in patent EP3771336A1, “REPELLENT COMPOSITION” (priority 2019, dated 2021).

The EC50 is the concentration giving half of the maximal effect.

≈ marks a conversion by molar mass, not a printed value.

For data set [1] the following is noted: at 25°C.
A further data set relates to Daphnia magna. The note with it: aquatic toxicity, daphnids.

Regarding `CCCCCCCCCCCC(=O)O` [lauric acid, dodecanoic acid], the solubility in water entry is given as “poorly soluble in water”. In data set [1], the vapor pressure is given as 2.13 x 10^-6 kPa.
As to `CCCCCCCCCCCC(=O)OC(C)C` [IPL, propan-2-yl dodecanoate], the solubility in water entry is recorded as “poor solubility in water”.
For `CCCCCCCCCCCCCCCC(=O)OC(C)C` [IPP, propan-2-yl hexadecanoate], the solubility in water result was “immiscible with water”.
For `CCCCCCCCCC(=O)O` [Decanoic acid], in the data set with Daphnia magna, the concentration for a half-maximal effect (EC50) is 16 µg/mL (≈ 92.9 µM). In addition, the vapor pressure in data set [1] was 4.88 x 10^-5 kPa.
